{
  "source": "patent US20050276838A1",
  "about": "“Composition and method for viral inhibition” (priority 2003, published 2005)",
  "key": {"[1]": {"test_system": "Human Rotavirus strain Wa", "experiment": "Virus Inhibition Assay: MTT viability of MA-104 cells infected with Rotavirus in the presence of test compound", "format": "cell-based", "conditions": "for MA-104 Infection with Lactulose (Mean OD): MTT absorbance 570 nm, 3 days, mean ± sd, triplicate; for Fate of MA-104 cells treated with virus and compound (MTT metabolism assay): in the presence of virus, Table 2; for MA-104 Cell Viability After Exposure to Test Compound with Rotavirus, (+) Virus: percent of control without virus or compound added, MTT after three days, five wells, compound concentration not given", "description": "(§1) MA-104 cells of epithelial morphology were obtained from American Type Culture Collection and were originally derived from Rhesus monkey embryonic kidney. The cells were cultured at 37° C. in a humidified incubator and in an atmosphere of 5% CO2, in Minimal Essential Medium with Earle's balanced salt solution (2 mM glutamine, 1 mM sodium pyruvate, 0.1 mM non-essential amino acids and 1.5 g/L sodium bicarbonate) supplemented with 10% fetal bovine serum from Hyclone, Logan, Utah. The cells were passaged twice a week at a split ratio of 1:4.\nHuman Rotavirus strain Wa was obtained from the American Type Culture Collection. A virus stock was diluted 1:5 in media, aliquoted to 0.2 mL per vial and stored at approximately −80° C. The human Rotavirus strain, Wa (TC adapted) (Catalog No. VR-2018), originally isolated from a diarrheic stool from a human patient (Wyatt et al., Science 207: 189-191, 1980; U.S. Pat. No. 4,341,870), is Serotype 1 (G1) for VP7.\n(§2) MTT Viability Assays were conducted in a Promega CellTiter 96® Non-Radioactive Cell Kit (Cat # G400) obtained from Promega, Madison, Wis. and used according to manufacturer's instructions.\n(§3) Test compounds were prepared by dissolving each compound at 20-μg/mL final concentration in incomplete MA-104 media (Minimal Essential Medium with Earle's balanced salt solution). The compounds were sterilized by filtration through a 0.45-micron filter. The filter-sterilized stock was stored frozen at less than −20° C.\n(§4) Virus Inhibition Assay: Virus strain Wa (1:2 dilution from stock) was activated in the presence of 5 μg/mL trypsin and incubated with 1, 10 or 100 μg/mL test compound in serum-free medium at 37° C. for 30 minutes. The activated virus was then diluted 1:5 in serum-free medium containing test compound at the same concentration (to bring the trypsin concentration to 1 μg/mL), added to MA-104 cells, and serially diluted on microtiter plates (5-fold series). The diluent contained 1 μg/mL trypsin and the indicated amount of test compound. After the virus was adsorbed at 37° C. for 1 hour, the virus innoculum was removed, and the media was replaced with serum-free medium containing 1 μg/mL trypsin and the indicated amount of test compound. Cultures were incubated at 37° C. for 3 days, and then cell viability was assessed with the Promega MTT assay following manufacturer's instructions. Each plate contained a dilution series of virus not treated with test compound and each plate contained cells exposed to test compound without virus. All samples were tested in triplicate. Absorbance at 570 nm was determined on a SpectraMax microplate reader (Molecular Devices) equipped with SoftMax Pro (v 3.1.2) data analysis software. The mean absorbance of triplicate determinations, the standard deviation, and the % CV (standard deviation/mean* 100) were calculated. The Q test was used to remove outliers (Anderson, Robert L. 1987 in Practical Statistics for Analytical Chemists, page 31-33, Table 7, Appendix D). Data were fit to a 4-parameter curve using SoftMax Pro software. The curve equation is y=((A−D)/(1+(x/C)^B))[…] which defines a sigmoid shaped curve; A is the lower asymptote as X approaches zero; D is the upper plateau as X approaches infinity; B is the slope in the linear portion of the curve; and C is the ED50.\n(§5) Test compound and activated Rotavirus were diluted in serum free medium and added to five wells of MA-104 cells. Another 5 wells on the same microtiter plate were exposed to test compound in serum free medium containing trypsin. After three days incubation, cell viability was assessed with the MTT metabolism assay. Data are expressed as percent of control without virus or compound added."}, "MA-104 cells": {"test_system": "MA-104 cells", "format": "cell-based, Rhesus monkey", "description": "as §1, §2, §3, §4, §5"}, "[2]": {"test_system": "Human Rotavirus strain Wa", "conditions": "previous results referred to in the text; cited from earlier work"}},
  "note": "Where two headings read alike, the source gives them in different places.",
  "data": [
    {"molecule": "OC[C@H]1O[C@@H](O[C@@H]2[C@@H](CO)O[C@](O)(CO)[C@H]2O)[C@H](O)[C@@H](O)[C@H]1O", "note": "[Lactulose, 4-O-β-D-galactopyranosil-D-fructofuranose]", "values": [
      {"measurement": "MA-104 Infection with Lactulose (Mean OD)", "setting": "[1]; Lactulose 1 μg/mL, virus (diln)-1 10", "result": "0.072 ± 0.007"},
      {"measurement": "MA-104 Infection with Lactulose (Mean OD)", "setting": "[1]; Lactulose 1 μg/mL, virus (diln)-1 50", "result": "0.132 ± 0.010"},
      {"measurement": "MA-104 Infection with Lactulose (Mean OD)", "setting": "[1]; Lactulose 1 μg/mL, virus (diln)-1 250", "result": "0.428 ± 0.092"},
      {"measurement": "MA-104 Infection with Lactulose (Mean OD)", "setting": "[1]; Lactulose 1 μg/mL, virus (diln)-1 1250", "result": "0.756 ± 0.036"},
      {"measurement": "MA-104 Infection with Lactulose (Mean OD)", "setting": "[1]; Lactulose 1 μg/mL, virus (diln)-1 6250", "result": "0.743 ± 0.064"},
      {"measurement": "MA-104 Infection with Lactulose (Mean OD)", "setting": "[1]; Lactulose 1 μg/mL, virus (diln)-1 31250", "result": "0.782 ± 0.049"},
      {"measurement": "MA-104 Infection with Lactulose (Mean OD)", "setting": "[1]; Lactulose 1 μg/mL, virus (diln)-1 156250", "result": "0.804 ± 0.031"},
      {"measurement": "MA-104 Infection with Lactulose (Mean OD)", "setting": "[1]; Lactulose 10 μg/mL, virus (diln)-1 10", "result": "0.087 ± 0.002"},
      {"measurement": "MA-104 Infection with Lactulose (Mean OD)", "setting": "[1]; Lactulose 10 μg/mL, virus (diln)-1 50", "result": "0.315 ± 0.168"},
      {"measurement": "MA-104 Infection with Lactulose (Mean OD)", "setting": "[1]; Lactulose 10 μg/mL, virus (diln)-1 250", "result": "0.541 ± 0.330"},
      {"measurement": "MA-104 Infection with Lactulose (Mean OD)", "setting": "[1]; Lactulose 10 μg/mL, virus (diln)-1 1250", "result": "0.869 ± 0.088"},
      {"measurement": "MA-104 Infection with Lactulose (Mean OD)", "setting": "[1]; Lactulose 10 μg/mL, virus (diln)-1 6250", "result": "0.808 ± 0.085"},
      {"measurement": "MA-104 Infection with Lactulose (Mean OD)", "setting": "[1]; Lactulose 10 μg/mL, virus (diln)-1 31250", "result": "0.820 ± 0.082"},
      {"measurement": "MA-104 Infection with Lactulose (Mean OD)", "setting": "[1]; Lactulose 10 μg/mL, virus (diln)-1 156250", "result": "0.844 ± 0.030"},
      {"measurement": "MA-104 Infection with Lactulose (Mean OD)", "setting": "[1]; Lactulose 100 μg/mL, virus (diln)-1 10", "result": "0.133 ± 0.045"},
      {"measurement": "MA-104 Infection with Lactulose (Mean OD)", "setting": "[1]; Lactulose 100 μg/mL, virus (diln)-1 50", "result": "0.849 ± 0.061"},
      {"measurement": "MA-104 Infection with Lactulose (Mean OD)", "setting": "[1]; Lactulose 100 μg/mL, virus (diln)-1 250", "result": "0.906 ± 0.081"},
      {"measurement": "MA-104 Infection with Lactulose (Mean OD)", "setting": "[1]; Lactulose 100 μg/mL, virus (diln)-1 1250", "result": "0.971 ± 0.060"},
      {"measurement": "MA-104 Infection with Lactulose (Mean OD)", "setting": "[1]; Lactulose 100 μg/mL, virus (diln)-1 6250", "result": "1.012 ± 0.153"},
      {"measurement": "MA-104 Infection with Lactulose (Mean OD)", "setting": "[1]; Lactulose 100 μg/mL, virus (diln)-1 31250", "result": "0.951 ± 0.038"},
      {"measurement": "MA-104 Infection with Lactulose (Mean OD)", "setting": "[1]; Lactulose 100 μg/mL, virus (diln)-1 156250", "result": "0.942 ± 0.040"},
      {"measurement": "Protection of MA-104 cells from virus killing", "setting": "[1]; MA-104 cells infected with Rotavirus, lactulose 1, 10, 100 μg/mL", "result": "protected MA-104 cells from virus killing in a dose dependent manner"},
      {"measurement": "Fate of MA-104 cells treated with virus and compound (MTT metabolism assay)", "setting": "[1]", "result": "remained viable"},
      {"measurement": "MA-104 Cell Viability After Exposure to Test Compound with Rotavirus, (+) Virus", "setting": "[1]", "result": 119, "unit": "%"},
      {"measurement": "MA-104 Cell Viability After Exposure to Test Compound without Rotavirus, (−) Virus", "setting": "MA-104 cells; Rhesus monkey, 3 days", "result": 134, "unit": "%"},
      {"measurement": "MA-104 cells, no virus (Mean OD)", "setting": "MA-104 cells; Rhesus monkey, 3 days, 1 μg/mL", "result": "0.372 ± 0.093"},
      {"measurement": "MA-104 cells, no virus (Mean OD)", "setting": "MA-104 cells; Rhesus monkey, 3 days, 10 μg/mL", "result": "0.419 ± 0.070"},
      {"measurement": "MA-104 cells, no virus (Mean OD)", "setting": "MA-104 cells; Rhesus monkey, 3 days, 100 μg/mL", "result": "0.612 ± 0.192"}
    ]},
    {"molecule": "Sialyllactose", "values": [
      {"measurement": "Fate of MA-104 cells treated with virus and compound (MTT metabolism assay)", "setting": "[1]", "result": "significant cell kill due to virus infection"},
      {"measurement": "MA-104 Cell Viability After Exposure to Test Compound with Rotavirus, (+) Virus", "setting": "[1]", "result": 17, "unit": "%"},
      {"measurement": "MA-104 Cell Viability After Exposure to Test Compound without Rotavirus, (−) Virus", "setting": "MA-104 cells", "result": 100, "unit": "%"}
    ]},
    {"molecule": "arabinogalactan", "values": [
      {"measurement": "Fate of MA-104 cells treated with virus and compound (MTT metabolism assay)", "setting": "[1]", "result": "significant cell kill due to virus infection"},
      {"measurement": "MA-104 Cell Viability After Exposure to Test Compound with Rotavirus, (+) Virus", "setting": "[1]", "result": 19, "unit": "%"},
      {"measurement": "MA-104 Cell Viability After Exposure to Test Compound without Rotavirus, (−) Virus", "setting": "MA-104 cells", "result": 102, "unit": "%"}
    ]},
    {"molecule": "galactooligosaccharide", "values": [
      {"measurement": "MA-104 Cell Viability After Exposure to Test Compound without Rotavirus, (−) Virus", "setting": "MA-104 cells", "result": 116, "unit": "%"}
    ]},
    {"molecule": "kappa-carageenen [Kappa Carageenen]", "values": [
      {"measurement": "Fate of MA-104 cells treated with virus and compound (MTT metabolism assay)", "setting": "[1]", "result": "remained viable"},
      {"measurement": "MA-104 Cell Viability After Exposure to Test Compound with Rotavirus, (+) Virus", "setting": "[1]", "result": 119, "unit": "%"},
      {"measurement": "MA-104 Cell Viability After Exposure to Test Compound without Rotavirus, (−) Virus", "setting": "MA-104 cells", "result": 112, "unit": "%"},
      {"measurement": "Inhibition of Rotavirus according to previous results / previous data", "setting": "[2]", "result": "inhibits Rotavirus infection"}
    ]}
  ]
}
